Experimental data from article PMC12736008, “New Dimethylpyridine-3-Carboxamide Derivatives as MMP-13 Inhibitors with Anticancer Activity” (Molecules, 2025).

Legend:
MMP-8 = molecular target: T1, MMP-8 (Homo sapiens, UniProt P22894); assay: MMP-8 inhibitory screening assay kit (fluorometric); assay type: biochemical; conditions: single-point screening; same concentrations, 1.8 to 4.6 µM
T1 construct: purchased Abcam ab139453
Description: The inhibitory activity of the designed compounds against MMP-13 was evaluated using a commercial fluorometric MMP-13 inhibitor assay kit (Abcam, Cambridge, UK), following the manufacturer’s protocol. Solutions of the tested compounds were prepared at concentrations ranging from 1.8 to 4.6 µM. N-isobutyl-N-(4-methoxyphenylsulfonyl)glycyl hydroxamic acid (NNGH), a broad-spectrum inhibitor of matrix metalloproteinases, was used as positive control. […] In parallel, MMP-8 inhibition assays were also conducted using the same concentrations of compounds 3b, 3c, 3d, and 3g.
It should be emphasized that these assays were performed as single-point screening experiments, optimized for rapid qualitative assessment rather than full kinetic characterization. Consequently, the observed differences in activity between MMP-13 and MMP-8 are indicative trends supporting the selectivity predicted by computational studies, including docking, molecular dynamics simulations, and binding free energy calculations, rather than providing definitive quantitative evidence.
The inhibitory activity of the tested compounds was evaluated using the MMP-13 inhibitor screening assay kit (fluorometric) (Abcam, ab139451). The assay performed according to the manufacturer’s instructions. The designed compounds were tested at concentrations ranging from 1.8 to 4.6 µM, to determine their inhibitory activity. […]

[1] = molecular target: T2, human serum albumin (HSA) (Homo sapiens, UniProt P02768); assay: Fluorescence quenching titration of human serum albumin; assay type: binding; conditions: for ΔG^0 / ΔH^0 / ΔS^0: HSA complex formation; for ΔG^0: one value for 297-308 K; for ΔH^0 / ΔS^0: van't Hoff; for KSV·10^4: PBS pH 7.4
T2 construct: purchased Sigma-Aldrich
Description: In the human albumin, the amino acid residue Trp214 in subdomain IIA is of particular significance in structural studies. Subdomain IIA is responsible for binding many drugs and endogenous compounds [37]. To investigate the interactions between HSA and the tested compounds, fluorescence spectroscopy was conducted. […] The Stern–Volmer constant with inner filter correction was applied, based on changes in absorbance and in the fluorescence intensity of excited Trp214 residues located in the protein binding pocket:(1) F0/Fcorr=1+kqτQ=1+KSV[Q] (2) Fcorr=Fobs10^(Aex+Aem)/2 where F0 is maximum fluorescence intensities protein without a quencher, Fcorr is the corrected florescence intensities, kq is the quenching rate constant of the molecules, τ is the average lifetime of the molecule (for biomolecules τ = 10^−8 s), [Q] is the concentration of quencher, Ksv is the Stern-Volmer constant, Fobs is the steady-state fluorescence intensity at the maximum wavelength with the quencher, Aex and Aem are the absorbance at excitation and emission wavelengths, respectively. The quenching rate constants (kq) are higher than 2 × 10^10 dm^3 mol^−1 s^−1; therefore, the quenching mechanism is static and supports complex formation.
The binding parameters were evaluated by a double logarithm regression curve by Equation (3):(3) logF0−F/F=logKb[…] where F0 is the maximum fluorescence intensity of a protein without a quencher, F is the maximum fluorescence intensity of the protein after a quencher addition, Kb is the binding constant, [Q] is the molar concentration of the quencher, and n is the binding stoichiometry.
The compounds studied can be arranged in accordance with the value of Kb, the strength of their interaction with HSA. In this ranking, 3d is the highest ranked, followed by 3c, 3b, and 3g in descending order of compatibility. Then, using Equations (4), and van’t Hoff function (5), the thermodynamic parameters of complex formation were determined and collected in Table 5, and Figure 10:(4) logKb=−ΔH^0/RT+[…] (5) ΔG^0=ΔH^0−TΔS^0=−RTlnKb where R is the gas constant (8.314 J mol^−1 K^−1), T is temperature, Kb is the binding constant, ΔH^0 is enthalpy, ΔS^0 is entropy, and ΔG^0 is free energy change.
To perform the UV-Vis and fluorometric titration measurements, all compounds were dissolved in dimethyl sulfoxide (DMSO) at a concentration of 1⸱10^−3 mol/dm^3. A 0.01 mol/dm^3 phosphate-buffered saline (PBS) solution with a pH of 7.4 (Sigma-Aldrich Chemie GmbH, St. Louis, MO, USA) was used to prepare a 1 × 10^−6 mol/dm^3 solution of human serum albumin (HSA) (Sigma-Aldrich Chemie GmbH, St. Louis, MO, USA). The fluorescence study was performed on a Cary Eclipse 500 spectrophotometer (Agilent, Santa Clara, CA, USA). The fluorometric spectra were recorded in a quartz cuvette with a 10 mm path length over an emission range of 280–400 nm, with an excitation wavelength of 280 nm and a PMT voltage of 560 V. The UV-Vis spectra were recorded on a Jasco V-750 spectrophotometer (Jasco, Tokyo, Japan) with the following parameters: a wavelength range of 190–400 nm, a data interval of 0.1 nm, a scan speed of 400 nm/min, and automatic baseline correction. Quartz cuvettes with an optical path length of 10 mm were used. […] The titrations of the protein solution with the studied compounds were performed in 0.5 molar increments, from 0.0 to 2.0 followed by 1.0 increments up to a final molar ratio of 11.0.

[2] = Solubility on preparing DMSO stock solutions; assay type: physicochemical; conditions: dissolved to 30 mM
Description: All tested compounds were dissolved in DMSO to obtain stock solutions with a final concentration of 50 mM (3a, 3b, 3e), 40 mM (3f, 3g, 3i, 3j), and 35 mM (3h, 3k). […] In the next step, 10 µL of each stock solution was added to 990 µL of supplemented medium.

T2 sequence (P02768 25-609): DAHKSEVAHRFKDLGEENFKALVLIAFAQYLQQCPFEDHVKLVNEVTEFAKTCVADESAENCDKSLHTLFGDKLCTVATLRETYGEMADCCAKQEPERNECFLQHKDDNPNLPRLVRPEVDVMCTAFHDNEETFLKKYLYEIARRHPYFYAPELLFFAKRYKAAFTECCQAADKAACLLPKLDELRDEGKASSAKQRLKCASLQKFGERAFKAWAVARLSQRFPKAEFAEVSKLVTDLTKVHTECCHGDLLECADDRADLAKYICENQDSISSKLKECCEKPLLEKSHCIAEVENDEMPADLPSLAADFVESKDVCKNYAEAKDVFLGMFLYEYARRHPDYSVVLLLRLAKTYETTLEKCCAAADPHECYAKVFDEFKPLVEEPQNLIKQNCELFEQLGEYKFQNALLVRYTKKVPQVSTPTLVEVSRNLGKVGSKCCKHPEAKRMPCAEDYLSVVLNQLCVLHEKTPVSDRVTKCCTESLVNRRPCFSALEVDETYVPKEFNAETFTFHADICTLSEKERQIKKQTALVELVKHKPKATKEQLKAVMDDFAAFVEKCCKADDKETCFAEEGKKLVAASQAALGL
T1 sequence (P22894 101-467): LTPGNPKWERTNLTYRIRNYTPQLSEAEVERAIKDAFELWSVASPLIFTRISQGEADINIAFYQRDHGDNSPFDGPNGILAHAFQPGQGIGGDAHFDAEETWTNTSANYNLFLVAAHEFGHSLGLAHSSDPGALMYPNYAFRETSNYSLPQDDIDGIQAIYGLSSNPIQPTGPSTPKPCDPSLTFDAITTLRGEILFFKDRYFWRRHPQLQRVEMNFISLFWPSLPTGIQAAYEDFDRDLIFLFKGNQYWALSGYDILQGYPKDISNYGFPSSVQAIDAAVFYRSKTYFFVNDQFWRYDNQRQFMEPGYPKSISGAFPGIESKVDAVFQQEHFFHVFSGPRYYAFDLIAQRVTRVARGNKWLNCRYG

Row | SMILES | MMP-8 activity inhibition (MMP-8) | ΔG^0 [1] [kcal/mol] | ΔH^0 [1] [kcal/mol] | ΔS^0 [1] [J·mol^−1·K^−1] | kq·10^12 ([1]; T 297 K) | n (binding stoichiometry) ([1]; T 297 K) | KSV·10^4 ([1]; T 297 K) | kq·10^12 ([1]; T 303 K) | n (binding stoichiometry) ([1]; T 303 K) | KSV·10^4 ([1]; T 303 K) | kq·10^12 ([1]; T 308 K) | n (binding stoichiometry) ([1]; T 308 K) | KSV·10^4 ([1]; T 308 K) | solubility [2]
1 | Cc1cc(C)c(C(=O)NCC(=O)NCc2ccccc2)c(S)n1 [Compound 3g, 4,6-dimethyl-N-[2-(benzylamino)-2-oxoethyl]-2-sulfanylpyridine-3-carboxamide] | slight inhibitory activity | -2.12 | -44.077 | −579.14 | 0.87 10^12 dm^3·mol^−1·s^−1 | 0.60 | 0.87 10^4 dm^3·mol^−1 | 0.72 10^12 dm^3·mol^−1·s^−1 | 0.54 | 0.72 10^4 dm^3·mol^−1 | 0.63 10^12 dm^3·mol^−1·s^−1 | 0.42 | 0.63 10^4 dm^3·mol^−1 | –
2 | Cc1cc(C)c(C(=O)NCC(=O)NCc2ccc(Oc3ccccc3)cc2)c(S)n1 [Compound 3b, 4,6-dimethyl-N-{2-[(4-phenoxybenzyl)amino]-2-oxoethyl}-2-sulfanylpyridine-3-carboxamide] | – | -3.176 | -96.119 | −1282.70 | 1.21 10^12 dm^3·mol^−1·s^−1 | 0.89 | 1.21 10^4 dm^3·mol^−1 | 1.06 10^12 dm^3·mol^−1·s^−1 | 0.60 | 1.06 10^4 dm^3·mol^−1 | 0.86 10^12 dm^3·mol^−1·s^−1 | 0.44 | 0.86 10^4 dm^3·mol^−1 | –
3 | Cc1cc(C)c(C(=O)NCC(=O)NCc2ccccc2Cl)c(S)n1 [Compound 3d, N-{2-[(2-chlorobenzyl)amino]-2-oxoethyl}-4,6-dimethyl-2-sulfanylpyridine-3-carboxamide] | – | -4.156 | -45.471 | −570.21 | 2.51 10^12 dm^3·mol^−1·s^−1 | 0.82 | 2.51 10^4 dm^3·mol^−1 | 2.13 10^12 dm^3·mol^−1·s^−1 | 0.73 | 2.13 10^4 dm^3·mol^−1 | 1.88 10^12 dm^3·mol^−1·s^−1 | 0.63 | 1.88 10^4 dm^3·mol^−1 | low solubility
4 | Cc1cc(C)c(C(=O)NCC(=O)NCc2ccc(Cl)cc2)c(S)n1 [Compound 3c, N-{2-[(4-chlorobenzyl)amino]-2-oxoethyl}-4,6-dimethyl-2-sulfanylpyridine-3-carboxamide] | – | -4.319 | -45.696 | −571.09 | 2.69 10^12 dm^3·mol^−1·s^−1 | 0.84 | 2.69 10^4 dm^3·mol^−1 | 2.34 10^12 dm^3·mol^−1·s^−1 | 0.74 | 2.34 10^4 dm^3·mol^−1 | 2.07 10^12 dm^3·mol^−1·s^−1 | 0.65 | 2.07 10^4 dm^3·mol^−1 | low solubility
